Results reported in ChEMBL document CHEMBL4024727, “Synthesis and antimycobacterial screening of new thiazolyl-oxazole derivatives” (Eur J Med Chem, 2017).
In brackets after ≈: the same amount, converted by molar mass.

Assays:
Type in all cases: functional
Escherichia coli [1] = experiment: Antibacterial activity against Escherichia coli NCIM 2576 measured after 8 hrs; conditions: NCIM 2576, 8 h
Staphylococcus aureus [2] = experiment: Growth inhibition of Staphylococcus aureus NCIM 2602 at 10 ug/ml measured after 12 hrs relative to control; conditions: NCIM 2602, 12 h, read-out: GI
Staphylococcus aureus [3] = experiment: Growth inhibition of Staphylococcus aureus NCIM 2602 at 1 ug/ml measured after 12 hrs relative to control; conditions: NCIM 2602, 12 h, read-out: GI
[4] = tested on: Mycobacterium tuberculosis; experiment: Antitubercular activity against Mycobacterium bovis BCG ATCC 35743 dormant stage by nitrate reductase based two-fold dilution assay; conditions: BCG str. ATCC 35743
Pseudomonas fluorescens [5] = experiment: Antibacterial activity against Pseudomonas fluorescens NCIM 2059 measured after 8 hrs; conditions: NCIM 2059, 8 h
[6] = tested on: Mycobacterium tuberculosis; experiment: Growth inhibition of Mycobacterium bovis BCG ATCC 35743 at 30 ug/ml by nitrate reductase based two-fold dilution assay relative to control; conditions: BCG str. ATCC 35743, read-out: GI
Bacillus subtilis [7] = experiment: Growth inhibition of Bacillus subtilis NCIM 2162 at 10 ug/ml measured after 12 hrs relative to control; conditions: NCIM 2162, 12 h, read-out: GI
[8] = tested on: Mycobacterium tuberculosis; experiment: Growth inhibition of Mycobacterium bovis BCG ATCC 35743 at 1 ug/ml by nitrate reductase based two-fold dilution assay relative to control; conditions: BCG str. ATCC 35743, read-out: GI
Pseudomonas fluorescens [9] = experiment: Growth inhibition of Pseudomonas fluorescens NCIM 2059 at 30 ug/ml measured after 8 hrs relative to control; conditions: NCIM 2059, 8 h, read-out: GI
[10] = tested on: Mycobacterium tuberculosis; experiment: Antitubercular activity against Mycobacterium tuberculosis H37Ra ATCC 25177 dormant stage by XTT dye based two-fold dilution method
[11] = tested on: Mycobacterium tuberculosis; experiment: Growth inhibition of Mycobacterium tuberculosis H37Ra ATCC 25177 at 10 ug/ml by XTT dye based two-fold dilution method relative to control; conditions: read-out: GI
Escherichia coli [12] = experiment: Growth inhibition of Escherichia coli NCIM 2576 at 1 ug/ml measured after 8 hrs relative to control; conditions: NCIM 2576, 8 h, read-out: GI
[13] = tested on: Mycobacterium tuberculosis; experiment: Growth inhibition of Mycobacterium tuberculosis H37Ra ATCC 25177 at 30 ug/ml by XTT dye based two-fold dilution method relative to control; conditions: read-out: GI
Bacillus subtilis [14] = experiment: Antibacterial activity against Bacillus subtilis NCIM 2162 measured after 12 hrs; conditions: NCIM 2162, 12 h
Pseudomonas fluorescens [15] = experiment: Growth inhibition of Pseudomonas fluorescens NCIM 2059 at 1 ug/ml measured after 8 hrs relative to control; conditions: NCIM 2059, 8 h, read-out: GI
Bacillus subtilis [16] = experiment: Growth inhibition of Bacillus subtilis NCIM 2162 at 30 ug/ml measured after 12 hrs relative to control; conditions: NCIM 2162, 12 h, read-out: GI
Escherichia coli [17] = experiment: Growth inhibition of Escherichia coli NCIM 2576 at 10 ug/ml measured after 8 hrs relative to control; conditions: NCIM 2576, 8 h, read-out: GI
[18] = tested on: Mycobacterium tuberculosis; experiment: Growth inhibition of Mycobacterium tuberculosis H37Ra ATCC 25177 at 3 ug/ml by XTT dye based two-fold dilution method relative to control; conditions: read-out: GI
Staphylococcus aureus [19] = experiment: Growth inhibition of Staphylococcus aureus NCIM 2602 at 30 ug/ml measured after 12 hrs relative to control; conditions: NCIM 2602, 12 h, read-out: GI
Bacillus subtilis [20] = experiment: Growth inhibition of Bacillus subtilis NCIM 2162 at 1 ug/ml measured after 12 hrs relative to control; conditions: NCIM 2162, 12 h, read-out: GI
Pseudomonas fluorescens [21] = experiment: Growth inhibition of Pseudomonas fluorescens NCIM 2059 at 10 ug/ml measured after 8 hrs relative to control; conditions: NCIM 2059, 8 h, read-out: GI
Escherichia coli [22] = experiment: Growth inhibition of Escherichia coli NCIM 2576 at 30 ug/ml measured after 8 hrs relative to control; conditions: NCIM 2576, 8 h, read-out: GI
[23] = tested on: Mycobacterium tuberculosis; experiment: Growth inhibition of Mycobacterium bovis BCG ATCC 35743 at 10 ug/ml by nitrate reductase based two-fold dilution assay relative to control; conditions: BCG str. ATCC 35743, read-out: GI
Staphylococcus aureus [24] = experiment: Antibacterial activity against Staphylococcus aureus NCIM 2602 measured after 12 hrs; conditions: NCIM 2602, 12 h

| Structure (SMILES) | MIC (Escherichia coli [1]) | inhibition of growth at 10 µg/mL (Staphylococcus aureus [2]) | inhibition of growth at 1 µg/mL (Staphylococcus aureus [3]) | IC50 [4] | MIC90 [4] | MIC (Pseudomonas fluorescens [5]) | inhibition of growth at 30 µg/mL [6] | inhibition of growth at 10 µg/mL (Bacillus subtilis [7]) | inhibition of growth at 1 µg/mL [8] | inhibition of growth at 30 µg/mL (Pseudomonas fluorescens [9]) | inhibition of growth at 1 µg/mL (Escherichia coli [12]) | MIC (Bacillus subtilis [14]) | inhibition of growth at 1 µg/mL (Pseudomonas fluorescens [15]) | inhibition of growth at 30 µg/mL (Bacillus subtilis [16]) | inhibition of growth at 10 µg/mL (Escherichia coli [17]) | inhibition of growth at 30 µg/mL (Staphylococcus aureus [19]) | inhibition of growth at 1 µg/mL (Bacillus subtilis [20]) | inhibition of growth at 10 µg/mL (Pseudomonas fluorescens [21]) | inhibition of growth at 30 µg/mL (Escherichia coli [22]) | MIC (Staphylococcus aureus [24]) | other results |
| --- | --- | --- | --- | --- | --- | --- | --- | --- | --- | --- | --- | --- | --- | --- | --- | --- | --- | --- | --- | --- | --- |
| Cc1nc(-c2ccccc2)oc1-c1csc(-c2ccc(Cl)cc2)n1 | > 100 µM | 22.3% | 12.8% | > 100 µM | > 100 µM | > 100 µM | 43% | 29.2% | 30% | 44.9% | 11.1% | > 100 µM | 10.5% | 45.7% | 25.3% | 48.9% | 14.9% | 23.7% | 48.9% | > 100 µM | IC50 [10]: > 100 µM; MIC90 [10]: > 100 µM; inhibition of growth at 10 µg/mL [11]: 45%; inhibition of growth at 30 µg/mL [13]: 46%; inhibition of growth at 3 µg/mL [18]: 38%; inhibition of growth at 10 µg/mL [23]: 41% |
| CC1(C)S[C@@H]2[C@H](NC(=O)[C@H](N)c3ccccc3)C(=O)N2[C@H]1C(=O)O [AMPICILLIN] | 4.18 µM (≈ 1.46 µg/mL) | 98.9% | 98.2% | – | – | 12.5 µM (≈ 4.36 µg/mL) | – | 94.5% | – | 98.8% | 97.5% | 29.2 µM (≈ 10.2 µg/mL) | 96.4% | 96.8% | 97.9% | 99.4% | 90% | 97.7% | 100% | 2.86 µM (≈ 0.999 µg/mL) | – |
| Cc1nc(-c2ccc(F)cc2)oc1-c1csc(-c2ccc(Br)cc2)n1 | > 100 µM | 56.6% | 44.1% | > 100 µM | > 100 µM | > 100 µM | 42% | 51.8% | 28% | 68.3% | 48.9% | > 100 µM | 48.6% | 68.2% | 60.7% | 67.8% | 46.5% | 54.2% | 69% | > 100 µM | IC50 [10]: > 100 µM; MIC90 [10]: > 100 µM; inhibition of growth at 10 µg/mL [11]: 45%; inhibition of growth at 30 µg/mL [13]: 54%; inhibition of growth at 3 µg/mL [18]: 43%; inhibition of growth at 10 µg/mL [23]: 36% |
| Cc1nc(-c2ccc(F)cc2)oc1-c1csc(-c2ccc(Cl)cc2)n1 | > 100 µM | 19.5% | 8.6% | > 100 µM | > 100 µM | > 100 µM | 33% | 12.9% | 25% | 21.5% | 5.86% | > 100 µM | 0.52% | 20.5% | 10.4% | 25.8% | 4.2% | 20.7% | 24.9% | > 100 µM | IC50 [10]: > 100 µM; MIC90 [10]: > 100 µM; inhibition of growth at 10 µg/mL [11]: 4%; inhibition of growth at 30 µg/mL [13]: 13%; inhibition of growth at 3 µg/mL [18]: 3%; inhibition of growth at 10 µg/mL [23]: 29% |
| Cc1nc(-c2ccc(F)cc2)oc1-c1csc(-c2ccc(F)cc2)n1 | > 100 µM | 51.4% | 43% | > 100 µM | > 100 µM | > 100 µM | 20% | 55.3% | 3% | 63.4% | 43.8% | > 100 µM | 40.6% | 63.8% | 59% | 67% | 40.5% | 55.3% | 62.5% | > 100 µM | IC50 [10]: > 100 µM; MIC90 [10]: > 100 µM; inhibition of growth at 10 µg/mL [11]: 5%; inhibition of growth at 30 µg/mL [13]: 6%; inhibition of growth at 10 µg/mL [23]: 6% |
| Cc1ccc(-c2nc(-c3oc(-c4ccc(F)cc4)nc3C)cs2)cc1 | > 100 µM | 12.8% | 6.75% | > 100 µM | > 100 µM | > 100 µM | 5% | 10.7% | 3% | 20.6% | 6.65% | > 100 µM | 2.41% | 22% | 10.5% | 22.3% | 7.61% | 10.4% | 23.7% | > 100 µM | IC50 [10]: > 100 µM; MIC90 [10]: > 100 µM; inhibition of growth at 10 µg/mL [11]: 3%; inhibition of growth at 30 µg/mL [13]: 5%; inhibition of growth at 10 µg/mL [23]: 5% |
